Data published in the supplement of paper PMC5908809.

Experiments:
[1] = test system: normal NK cells expanded with K562-aAPC; experiment: drug sensitivity score (DSS) (DSS units); higher = more sensitive; extreme values may be limits of the assay; details: 72 h; IL-2 2.5 ng/mL
Protocol: (§1)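 Drug sensitivity and resistance testing on K562-aAPC-expanded normal NK cells: 5 concentrations (10-fold steps over a 10,000-fold range), 72 h at 37 °C, viability by CellTiter-Glo normalised to DMSO and benzethonium chloride controls; DSS from the fitted curve.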

[2] = test system: normal NK cells expanded with K562-aAPC; experiment: percent inhibition of viability; higher = more inhibition; details: 72 h, IL-2 2.5 ng/mL
Protocol: as §1

[3] = test system: normal primary NK cells, pool 3 (3 donors) (IL-2 2.5 ng/mL); experiment: as above; details: 72 h
[4] = test system: NK-92 (IL-2 2.5 ng/mL); experiment: as above; details: 72 h
[5] = test system: NKL (IL-2 2.5 ng/mL); experiment: as above; details: 72 h
[6] = test system: YT (IL-2 2.5 ng/mL); experiment: as above; details: 72 h
[7] = test system: normal primary NK cells, pool 1 (3 donors) (IL-2 2.5 ng/mL); experiment: as above; details: 72 h
[8] = test system: IMC-1 (IL-2 20 ng/mL); experiment: as above; details: 72 h
[9] = test system: KHYG-1 (IL-2 2.5 ng/mL); experiment: as above; details: 72 h
[10] = test system: DERL-7 (IL-2 2.5 ng/mL); experiment: as above; details: 72 h
[11] = test system: SNK-6 (IL-2 2.5 ng/mL); experiment: as above; details: 72 h
[12] = test system: KAI3 (IL-2 2.5 ng/mL); experiment: as above; details: 72 h
[13] = test system: normal primary NK cells, pool 2 (3 donors) (IL-2 2.5 ng/mL); experiment: as above; details: 72 h
[14] = test system: NK-YS (IL-2 2.5 ng/mL); experiment: as above; details: 72 h
[15] = test system: normal primary NK cells, pool 1 (3 donors), resting (IL-2 0 ng/mL); experiment: as above; details: 72 h
[16] = test system: normal primary NK cells, pool 3 (3 donors) (IL-2 2.5 ng/mL); experiment: drug sensitivity score (DSS) (DSS units); higher = more sensitive; extreme values may be limits of the assay; details: 72 h
[17] = test system: NK-92 (IL-2 2.5 ng/mL); experiment: as above; details: 72 h
[18] = test system: NKL (IL-2 2.5 ng/mL); experiment: as above; details: 72 h
[19] = test system: YT (IL-2 2.5 ng/mL); experiment: as above; details: 72 h
[20] = test system: normal primary NK cells, pool 1 (3 donors) (IL-2 2.5 ng/mL); experiment: as above; details: 72 h
[21] = test system: IMC-1 (IL-2 20 ng/mL); experiment: as above; details: 72 h
[22] = test system: KHYG-1 (IL-2 2.5 ng/mL); experiment: as above; details: 72 h
[23] = test system: DERL-7 (IL-2 2.5 ng/mL); experiment: as above; details: 72 h
[24] = test system: SNK-6 (IL-2 2.5 ng/mL); experiment: as above; details: 72 h
[25] = test system: KAI3 (IL-2 2.5 ng/mL); experiment: as above; details: 72 h
[26] = test system: normal primary NK cells, pool 2 (3 donors) (IL-2 2.5 ng/mL); experiment: as above; details: 72 h
[27] = test system: NK-YS (IL-2 2.5 ng/mL); experiment: as above; details: 72 h
[28] = test system: normal primary NK cells, pool 1 (3 donors), resting (IL-2 0 ng/mL); experiment: as above; details: 72 h

Cn1cc(C2=C(c3cn(C4CCN(Cc5ccccn5)CC4)c4ccccc34)C(=O)NC2=O)c2ccccc21 [Enzastaurin] (max concentration tested 10000 nM)
Details	drug sensitivity score
[1]	0
[16]	0.87
[17]	0.06
[18]	0
[19]	0.24
[20]	0
[21]	3.17
[22]	2
[23]	1.77
[24]	0.12
[25]	0
[26]	0.55
[27]	0
[28]	0

percent inhibition of viability [%]
Details	1 nM	10 nM	100 nM	1000 nM	10000 nM
[2]	-2.11	0.83	0.77	6.44	4.35
[3]	-14.8	-5.85	0.91	-0.47	24.4
[4]	5.42	5.65	-7.08	-10.9	14.2
[5]	-10.8	-1.53	6.99	9.21	4.11
[6]	0.21	3.25	5.09	4.05	16.4
[7]	2.52	-11.7	-6.73	-14.6	-7.58
[8]	-6.89	3.57	0.18	12	33.1
[9]	0.22	1.8	5.25	15.6	19
[10]	1.51	-3.14	-1.37	-1.66	38.9
[11]	-2.07	-1.57	11	-2.69	14.5
[12]	-2.12	1.12	-3.1	-5.65	1.6
[13]	-9.8	0.84	10.8	-7.31	23.3
[14]	0.58	2.87	5.54	3.28	8.57
[15]	3.14	-9.37	-6.91	-38.3	-57.7

COc1ccc(Cl)c(Nc2nc3ccccc3nc2NS(=O)(=O)c2cccc(NC(=O)C(C)(C)N)c2)c1 [Pilaralisib] (max concentration tested 2500 nM)
Details	drug sensitivity score
[1]	0.55
[16]	0.19
[17]	6.61
[18]	1.45
[19]	2.91
[20]	0.02
[21]	0
[22]	1.04
[23]	2.77
[24]	0.01
[25]	1.25
[26]	1.39
[27]	0.68
[28]	1.41

percent inhibition of viability [%]
Details	0.25 nM	2.5 nM	25 nM	250 nM	2500 nM
[2]	-5.86	-9.89	-4.45	9.09	13
[3]	-0.55	-0.41	8.73	-3.82	16
[4]	1.29	7.6	3.1	33.3	47.3
[5]	-14.9	-17.9	-13.7	0.37	31.5
[6]	-4.96	-1.45	0.38	4.73	42
[7]	-2.73	-2.17	6.91	0.33	11.2
[8]	-10.7	-5.75	-6.19	-0.79	3.28
[9]	-8.15	-0.08	-3.78	6.51	17.4
[10]	4.27	-2.64	5.48	2.26	47.2
[11]	-25.1	-17.9	-11.5	-18.6	12.9
[12]	-9.17	-2.97	-7.92	0.18	28.9
[13]	-6.75	-2.47	3.08	7.62	22.6
[14]	-9.63	-5.01	-7.74	-2.2	23.1
[15]	-1.59	14	8.93	7.44	20.9

NC1(c2ccc(-c3nc4ccn5c(=O)[nH]nc5c4cc3-c3ccccc3)cc2)CCC1 [MK-2206] (max concentration tested 1000 nM)
Details	drug sensitivity score
[1]	5.95
[16]	1.47
[17]	4.95
[18]	0
[19]	0
[20]	1.31
[21]	0
[22]	0.23
[23]	8.28
[24]	0.95
[25]	1.8
[26]	2.88
[27]	0.39
[28]	3.29

percent inhibition of viability [%]
Details	0.1 nM	1 nM	10 nM	100 nM	1000 nM
[2]	-2.31	2.49	7.6	28.5	45.6
[3]	-11.3	-6.35	-0.77	8.45	19.7
[4]	-0.6	-11	14.7	21.1	42.8
[5]	-12.3	-6.86	-5.82	11.8	4.37
[6]	-0.31	-0.89	5.71	2.26	10.1
[7]	-0.91	-7.29	2.37	6.7	21.3
[8]	-4.35	-1.09	-0.11	-1.78	9.7
[9]	-0.27	8.2	6.87	6.05	14.9
[10]	-1.61	2.78	9.98	34.8	76
[11]	-2.51	-8.62	3.89	0.46	24.3
[12]	0.47	-1.02	11.1	11.8	17.4
[13]	-7.56	2.73	8.98	12.9	34.8
[14]	2	1.38	5.87	2.52	14.5
[15]	11.9	-0.15	13.2	11.8	43
